Data set [1] has as its system PSMA receptor expressed on the PC3pip cells. Kind of data set: In vitro cellular uptake studies, Example 1. Format: cell-based, human. The following applies: 50 nM, 4 hours. As for the experimental part:
PC3pip and PC3flu cells were seeded in p-Slide 8-Well Chamber Slide (ibidi GmbH) at 2,000 cells/well. When cells grew to 70% confluency, PSMA-1-VcMMAE-Cy5.5 or PSMA-1-McMMAE-Cy5.5 conjugations were added at 50 nM and incubated at 37° C. for 4 hours. Cells were washed with PBS and stained with DAPI and LysoOrange (Abcam) for 30 minutes at 37° and 5% CO2, after which they were washed again with PBS and filled with fresh medium. Selectivity was determined by including 20-fold excess of the PSMA-1 ligand. The uptake and localization of the drug conjugates were visualized under a Leica HyVolution SP8 confocal microscope at 40×.

Data set [2] addresses T1, human liver cathepsin B (Homo sapiens, UniProt P07858).
T1 construct: purchased Anthens Research and Technology; host or cells: human liver (tissue-derived enzyme)
Kind of data set: Enzymatic cleavage by cathepsin B, Example 1. The format is in vitro ADME. The note with it: 2 μM conjugate, 37° C., HPLC. Here is the method: PSMA-1-VcMMAE-Cy5.5 or PSMA-1-McMMAE-Cy5.5 was added to 500 μL of activated human liver cathepsin B (Anthens Research and Technology) solution to a final concentration of 2 μM and incubated at 37° C. At different time intervals, 40 µL of the solution was taken out into tubes loaded with 1 μL of 1 mM E64 protease inhibitor. The mixture was vortexed and then stored at −80° C. for future HPLC analysis to assess degradation of PSMA-1-VcMMAE-Cy5.5 or PSMA-1-McMMAE-Cy5.5. Studies were performed in triplicate.

Data set [3] concerns PSMA-negative PC3flu cells. Description: In vitro cytotoxicity assay (CCK-8), PC3flu. The format is cell-based, human. As for the experimental part: (§1) Cells (1,000/well) were seeded in 96-well culture plates the day before treatment. Cells were incubated with various concentrations of drugs for 72 hours and cell viability evaluated by CCK-8 (Dojindo). The concentration required to reach 50% of cell proliferation was determined (IC50) by GraphPad Prism 3.0.

Data set [4] concerns PSMA-positive PC3pip cells. Kind of data set: In vitro cytotoxicity assay (CCK-8), PC3pip. Format: cell-based, human. Here is the method:
as §1

For data set [5], the system named is α-tubulin in PC3pip and PC3flu cells. Description: Immunofluorescence analysis of alpha-tubulin. The format is cell-based, human. The following applies: 5 nM, 24 hours. Here is the method:
Cells on coverslips at about 70% confluency were incubated with 5 nM of MMAE, PSMA-1-VcMMAE-Cy5.5 or PSMA-1-McMMAE-Cy5.5 for 24 hours. Cells were washed and fixed with 4% paraformaldehyde for 10 minutes, permeabilized with 0.1% Triton™ X-100 for 10 minutes, and blocked with 1% BSA for 1 hour at room temperature. Alpha-tubulin (B5-1-2) Alexa Fluor 488 Mouse Monoclonal Antibody (Invitrogen) was then added at 2 μg/mL in 0.1% BSA and incubated for 3 hours at room temperature. Cells were counterstained with DAPI, mounted with Fluor-Mount aqueous mounting solution, and observed under Leica DM4000B fluorescence microscopy at 40×.

Data set [6] in a line: Stability of conjugates incubated with PBS, Example 1. Format: physicochemical. The following applies: without enzyme. As for the experimental part: To investigate if PSMA-targeted drug conjugates were cleavable by cathepsin B, the two conjugates were incubated with or without the enzyme and chromatographed by HPLC. When the conjugates were incubated with PBS, both PSMA-1-VcMMAE-Cy5.5 and PSMA-1-McMMAE-Cy5.5 were stable (FIG. 1D).

Data set [7] deals with PC3pip and PC3flu tumors. Kind of data set: In vivo NIR imaging studies, Example 1. Details: species or system mice. The note with it: 40 nmol/kg i.v., fluorescence imaging. As for the experimental part:
Under guidelines of the animal care and use committee at Case Western Reserve University (IACUC #150033) 6 to 8-week old male Balb/cathymic nude mice were implanted subcutaneously with 1×10^6 of PC3flu and PC3pip on the left and right dorsum respectively. Mice received 40 nmol/kg of PSMA-1-VcMMAE-Cy5.5 or PSMA-1-McMMAE-Cy5.5 in PBS via tail vein injection when tumors reached 10 mm in diameter. Fluorescence imaging was performed using the Maestro In Vivo Imaging system (Perkin-Elmer). Multispectral images were unmixed into their component spectra (PSMA probes, autofluorescence, and background) to quantitate the average fluorescence intensity associated with the tumors using regions of interest (ROIs) around the tumors.

In data set [8] the target is T2, PSMA (Homo sapiens, UniProt Q04609).
T2 construct: expressed in transfected cells; host or cells: PC3pip cells (PC3 retrovirally transduced with PSMA), from Dr. Michel Sadelain, MSKCC
Description: Competitive binding assay (3H-ZJ24 displacement), Example 1. The following applies: PC3pip cells, 10 nM 3H-ZJ24; read-out: IC50, concentration required to inhibit 50% of binding.
Description: The assay was carried as previously reported by incubation PC3pip cells with different concentrations of drug conjugates in the presence of 10 nM N—[N—[(S)-1,3-dicarboxypropyl]carbamoyl]-S-[^3H]-methyl-L-cysteine (^3H-ZJ24) (GE Healthcare Life Sciences, Pittsburgh, PA). Radioactivity of cell pellet was counted by scintillation counter.

In data set [9] the target is T2, PSMA. Kind of data set: Competition binding studies, Example 2. The following applies: PC3pip cells, 12 nM 3H-ZJ24, 1 h, 37° C.; read-out: IC50, concentration required to inhibit 50% of the binding. Here is the method: PC3pip cells ([…]) was suspended in 200 μL of 50 mM Tris buffer, pH 7.5. The cells were incubated at 37° C. with different concentrations of PSMA-1-MMAE-IR700 or ZJ24 in the presence of 12 nM of 3H-ZJ24 for 1 h. The cells were then washed 3 times with cold PBS and cell-associated radioactivity was measured by scintillation counting. The concentration required to inhibit 50% of the binding (IC50) was determined by GraphPad Prism 3.0. Studies were performed in triplicate.

Data set [10] in a line: Maximum tolerated dose (MTD). The format is in vivo, mice. An excerpt: Mice were monitored daily for 14 days.
Data set [11] is described as follows: In vitro cytotoxicity assay (CCK-8), PC3flu. Format: cell-based, human. The note with it: 72 hours incubation, CCK-8; read-out: IC50 cytotoxicity, PC3flu cells. Here is the method: as §1
Data set [12] relates to metastatic PC3pip model (GFP labeled PC3pip cells). Kind of data set: Metastatic survival study. The format is in vivo, mice. Here is the method: Male athymic nude mice were injected into the left ventricle of the heart with 1×10^5 GFP labeled PC3pip cells to generate bone metastasis. One week later mice received 160 nmol/kg PSMA-1-VcMMAE-Cy5.5 or PBS every 4 days with a total of 5 doses and the progression of disease was monitored by GFP imaging. Five mice were used in each group.

The nature of data set [13]: In vitro cytotoxicity assay (CCK-8), PC3pip. The format is cell-based, human. The following applies: 72 hours incubation. As for the experimental part: as §1
Data set [14] has as its system heterotopic PC3pip tumors. Kind of data set: Heterotopic survival study. Format: in vivo, mice. An excerpt: Male athymic nude mice were implanted subcutaneously with 1×10^6 of PC3pip cells under the right dorsum of the mice. When tumor size reached approximately 100 mm^3 (tumor volume=Length×width^2/2), mice received drugs through tail vein injection. […] Animals were weighed and tumor size measured every other day for 90 days. Cures were defined as no tumor present at end of the 90-day study. When tumors became too large or animals were moribund they were euthanized. Five mice were used in each group.

The test system of data set [15] is orthotopic PC3pip tumors. Kind of data set: Orthotopic survival study. The format is in vivo, mice. The note with it: 3860 nmol/kg, five mice per group. As for the experimental part:
Surgical orthotopic tumor implantation was performed as previously reported. Tumor growth/size was monitored using Siemens Acuson S2000 ultrasound scanner. When the tumors were at the appropriate size (5 mm as measured by ultrasound, approximately 2 weeks) animals were given PSMA-1-VcMMAE, PSMA-1-VcMMAE-Cy5.5, or PBS every four days with a total of 5 doses. Tumors were monitored every other day by ultrasound. Each group had five mice.

As usually defined, the MTD is the largest dose that counted as tolerated.

Numbered stars: 1 amine (or outer) side, 2 acyl side, 3 side chain; on linkers, the order of the positions; unused ones are H or OH. Bridge positions count the residues as written; N and C are the ends. Square brackets hold non-standard residues; d marks the D form. Peptide text beside a SMILES is read from it. I, II: the chains in the order shown. * marks the point of attachment. Dolaproine = CO[C@@H]([C@@H]1CCCN1)[C@@H](C)C(=O)O; Dil = CC[C@H](C)[C@H](NC)[C@@H](CC(=O)O)OC; X2 = O=C1CC([*:2])C(=O)N1CCCCCC(=O)[*:1]; γGlu = O=C(O)[C@H](CCC(=O)[*:2])N[*:1]; PABC = O=C(OCc1ccc(N[*:1])cc1)[*:2]; X1 = C[C@@H](N*)[C@@H](O)c1ccccc1; Trx = NC[C@H]1CC[C@H](C(=O)O)CC1; Cit = NC(=O)NCCC[C@H](N)C(=O)O; NMeV = CN[C@H](C(=O)O)C(C)C; CO = O=C([*:1])[*:2]; Ahx = NCCCCCC(=O)O

T2 sequence (Q04609 whole entry): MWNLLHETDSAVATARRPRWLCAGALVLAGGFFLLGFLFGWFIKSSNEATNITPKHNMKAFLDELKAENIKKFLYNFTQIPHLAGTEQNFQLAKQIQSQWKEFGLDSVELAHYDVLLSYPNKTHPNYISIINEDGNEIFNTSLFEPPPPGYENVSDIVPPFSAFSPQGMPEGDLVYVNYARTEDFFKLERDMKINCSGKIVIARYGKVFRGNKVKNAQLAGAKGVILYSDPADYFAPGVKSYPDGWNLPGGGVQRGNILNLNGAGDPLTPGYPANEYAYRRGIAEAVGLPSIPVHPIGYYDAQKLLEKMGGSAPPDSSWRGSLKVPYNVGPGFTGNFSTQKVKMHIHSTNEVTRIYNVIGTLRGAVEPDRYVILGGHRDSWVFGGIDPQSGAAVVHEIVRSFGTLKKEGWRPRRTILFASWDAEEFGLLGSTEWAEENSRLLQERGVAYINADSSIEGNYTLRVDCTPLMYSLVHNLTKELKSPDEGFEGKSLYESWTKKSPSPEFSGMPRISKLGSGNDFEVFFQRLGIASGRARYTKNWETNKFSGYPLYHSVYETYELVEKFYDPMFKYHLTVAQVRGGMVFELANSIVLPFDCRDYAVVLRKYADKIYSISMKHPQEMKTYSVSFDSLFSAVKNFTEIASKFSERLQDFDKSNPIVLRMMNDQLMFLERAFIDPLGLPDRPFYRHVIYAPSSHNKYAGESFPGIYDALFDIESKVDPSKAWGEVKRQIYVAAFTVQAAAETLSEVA

Turning to `CC[C@H](C)[C@@H]([C@@H](CC(=O)N1CCC[C@H]1[C@H](OC)[C@@H](C)C(=O)N[C@H](C)[C@@H](O)c1ccccc1)OC)N(C)C(=O)[C@@H](NC(=O)[C@H](C(C)C)N(C)C(=O)CCCCCN1C(=O)CC(SC[C@H](NC(=O)[C@H](CCC(=O)O)NC(=O)[C@H](CCC(=O)O)NC(=O)[C@H](CCC(=O)O)NC(=O)CCCCCNC(=O)[C@H]2CC[C@H](CNC(=O)CC[C@H](NC(=O)N[C@@H](CCC(=O)O)C(=O)O)C(=O)O)CC2)C(=O)NCCCCCC(=O)N[C@@H](CCCCNC(=O)CCCCC[N+]2=C(/C=C/C=C/C=C3/N(C)c4ccc5ccccc5c4C3(C)C)C(C)(C)c3c2ccc2ccccc32)C(N)=O)C1=O)C(C)C` (some centres unmarked) [PSMA-1-McMMAE-Cy5.5], the “cellular binding and uptake, competition with PSMA-1 ligand” value in data set [1] was “selective and specific for the PSMA receptor”. Moreover, in data set [2], the “cleavage by cathepsin B” value was “remained intact”. The “IC50 cytotoxicity, PC3flu cells” value in [3] (72 hours incubation, CCK-8) is listed as “no IC50 values could be obtained”. The “IC50 cytotoxicity, PC3pip cells” value in data set [4] (72 hours incubation, CCK-8) is listed as “no IC50 values could be obtained”. In data set [5], the “disruption of α-tubulin network” value is on record as “no obvious disruption of tubulin”. In addition, the “stability when incubated with PBS” value in [6] is given as “stable”. For the same compound, in data set [7], the “time of peak uptake in PC3pip tumors” value came to 24 h.

On to `NCCCC[C@H](NC(=O)N[C@@H](CCC(=O)O)C(=O)O)C(=O)O` [ZJ24, (S)-2-(3-((S)-5-amino-1-carboxypentyl)-ureido)pentanedioic acid, reference compound], for which the IC50 came to 11.7 nM in data set [8] and 10.7 ± 0.89 nM in data set [9].

In the case of `CC[C@H](C)[C@@H]([C@@H](CC(=O)N1CCC[C@H]1[C@H](OC)[C@@H](C)C(=O)N[C@H](C)[C@@H](O)c1ccccc1)OC)N(C)C(=O)[C@@H](NC(=O)[C@H](C(C)C)N(C)C(=O)OCc1ccc(NC(=O)[C@H](CCCNC(N)=O)NC(=O)[C@@H](NC(=O)CCCCCN2C(=O)CC(SC[C@H](NC(=O)[C@H](CCC(=O)O)NC(=O)[C@H](CCC(=O)O)NC(=O)[C@H](CCC(=O)O)NC(=O)CCCCCNC(=O)[C@H]3CC[C@H](CNC(=O)CC[C@H](NC(=O)N[C@@H](CCC(=O)O)C(=O)O)C(=O)O)CC3)C(=O)NCCCCCC(=O)N[C@@H](CCCCN)C(N)=O)C2=O)C(C)C)cc1)C(C)C` (stereo partly drawn) [PSMA-1-VcMMAE] (I: V[Cit][PABC][NMeV]V[Dil][Dolaproine]-X1 / II: {Glu-CO-γGlu-Trx-Ahx}-EEEC[Ahx]K-NH2; linker I:N-II:4 via X2), in data set [10] (MTD / lowest effective dose), the “therapeutic index (TI)” value turned out to be 40. In data set [10] (mouse, in vivo, iv, single dose i.v., tumor-free athymic nude mice), the maximum tolerated dose (MTD) is 7.64 µmol/kg. Besides, the “MTD relative to MMAE” value in data set [10] (single dose i.v.) was “more than 10 fold”. Further, the “increase of IC50 on removal of the Cy5.5 moiety, PC3flu cells” value in data set [3] (versus PSMA-1-VcMMAE-Cy5.5) was found to be 11.1 fold. The IC50 in [11] stood at 222 nM; in [13] (CCK-8, read-out: IC50 cytotoxicity, PC3pip cells) it was 4.64 nM. Moreover, the “effect on survival and body weight, words” value in [12] is listed as “prolong animal survival time with no body weight loss”. Further, the “ratio of IC50's between PC3pip and PC3flu cells” value in [4] (72 hours incubation) was determined as 48.2. In [4] (co-incubation with 50 μM E64), the “effect of protease inhibitor E64 on cell killing” value is reported as “susceptible to E64 protease inhibition”. Moreover, the “increase of IC50 on removal of the Cy5.5 moiety, PC3pip cells” value in [4] (versus PSMA-1-VcMMAE-Cy5.5) turned out to be 6.2 fold. Moreover, the selectivity ratio in data set [13] (read-out: selectivity, differential cytotoxicity between PC3pip and PC3flu cells) was 48. Besides, the “inhibition of PC3pip versus PC3flu tumor growth” value in data set [14] (955 nmol/kg) is given as “significantly more effective at inhibiting PSMA-positive PC3pip tumor growth than PSMA-negative PC3flu tumor growth”. Moreover, the “cure (tumor free at 90 days)” value in data set [14] (3820 nmol/kg i.v. every 4 days, 5 doses) amounted to 60%. Moreover, the “tumor growth when given every 7 days” value in data set [14] (dosing every 7 days) is recorded as “greatly inhibited tumor growth”. For the same compound, the body weight loss result in [14] (even at the highest dose tested (3820 nmol/kg)) is “No body weight loss”. In addition, in data set [14] (mouse, in vivo), the “dose at which tumor growth inhibition starts” value came out at 191 nmol/kg. For the same compound, in data set [15], the tumor free mice was 1.
